The experiment deals with CD2F1 mice, L1210 leukemia sc, survival T/C. As to the kind of experiment: NCI In Vivo Anticancer Drug Screen. Data for tumor model L1210 Leukemia (subcutaneous) in CD2F1 (CDF1) mice. The settings on record: endpoint: median survival time, higher = longer survival. In short, it runs like this:
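Read-out: survival or tumor size. Value = treated (T) / vehicle control (C). Transplantable tumor in mice.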

Where [1] appears, read: dose: 3.0 mg/kg/injection, schedule: Q01DX Z (sc), vehicle: carboxymethylcellulose (CMC).
Where [2] appears, read: dose: 5.0 mg/kg/injection, schedule: Q01DX Z (sc), vehicle: carboxymethylcellulose (CMC).
Setting [3] is: dose: 8.4 mg/kg/injection, schedule: Q01DX Z (sc), vehicle: carboxymethylcellulose (CMC).
Where [4] appears, read: dose: 23.0 mg/kg/injection, schedule: Q01DX Z (sc), vehicle: carboxymethylcellulose (CMC).

Where “and” joins values, the source holds several entries; their conditions need not be identical. Identical values can stand only once. Toxic doses and inconclusive results are not listed.

Take `O=NN(CCCl)C(=O)NC1CCCCC1`: the T/C was 98 % of control (dose: 0.5 mg/kg/injection, schedule: Q01DX009 (ip), vehicle: saline + alcohol); 101 % of control and 106 % of control (dose: 0.5 mg/kg/injection, schedule: Q01DX009 (sc), vehicle: saline + alcohol); 101 % of control (dose: 1.0 mg/kg/injection, schedule: Q01DX009 (ip), vehicle: saline + alcohol); 105 % of control and 114 % of control (dose: 1.0 mg/kg/injection, schedule: Q01DX009 (sc), vehicle: saline + alcohol); 119 % of control (dose: 2.0 mg/kg/injection, schedule: Q01DX009 (sc), vehicle: saline + alcohol); 105 % of control and 112 % of control (dose: 3.0 mg/kg/injection, schedule: Q01DX Z (iv), vehicle: carboxymethylcellulose (CMC)). The T/C was 162 % of control (dose: 3.0 mg/kg/injection, schedule: Q01DX Z (oral), vehicle: carboxymethylcellulose (CMC)); 118 % of control under setting [1]; 178 % of control and 186 % of control (dose: 4.0 mg/kg/injection, schedule: Q01DX009 (ip), vehicle: saline + alcohol); 177 % of control and 181 % of control (dose: 5.0 mg/kg/injection, schedule: Q01DX Z (ip), vehicle: carboxymethylcellulose (CMC)); 294 % of control (dose: 5.0 mg/kg/injection, schedule: Q01DX Z (iv), vehicle: carboxymethylcellulose (CMC)); 493 % of control (dose: 5.0 mg/kg/injection, schedule: Q01DX Z (oral), vehicle: carboxymethylcellulose (CMC)). Besides, the T/C under setting [2] is 112 % of control and 155 % of control and 287 % of control; the T/C (dose: 5.36 mg/kg/injection, schedule: Q01DX009 (sc), vehicle: saline + alcohol) was 323 % of control; the T/C (dose: 8.0 mg/kg/injection, schedule: Q01DX009 (ip), vehicle: saline + alcohol) is 234 % of control and 261 % of control; the T/C (dose: 8.4 mg/kg/injection, schedule: Q01DX Z (ip), vehicle: carboxymethylcellulose (CMC)) is 381 % of control and 383 % of control; the T/C (dose: 8.4 mg/kg/injection, schedule: Q01DX Z (iv), vehicle: carboxymethylcellulose (CMC)) was 225 % of control and 261 % of control; the T/C (dose: 8.4 mg/kg/injection, schedule: Q01DX Z (oral), vehicle: carboxymethylcellulose (CMC)) is 412 % of control. In addition, the T/C by setting is: under setting [3], 106 % of control and 237 % of control and 300 % of control; (dose: 10.7 mg/kg/injection, schedule: Q01DX009 (ip), vehicle: saline + alcohol) 337 % of control; (dose: 10.7 mg/kg/injection, schedule: Q01DX009 (sc), vehicle: saline + alcohol) 378 % of control; (dose: 12.0 mg/kg/injection, schedule: Q01DX009 (sc), vehicle: saline + alcohol) 325 % of control; (dose: 14.0 mg/kg/injection, schedule: Q01DX Z (ip), vehicle: carboxymethylcellulose (CMC)) 255 % of control and 387 % of control; (dose: 14.0 mg/kg/injection, schedule: Q01DX Z (iv), vehicle: carboxymethylcellulose (CMC)) 183 % of control and 381 % of control. Further, the T/C was 255 % of control and 300 % of control (dose: 14.0 mg/kg/injection, schedule: Q01DX Z (oral), vehicle: carboxymethylcellulose (CMC)); 112 % of control (dose: 14.0 mg/kg/injection, schedule: Q07DX Z (sc), vehicle: carboxymethylcellulose (CMC)); 220 % of control (dose: 15.0 mg/kg/injection, schedule: Q01DX009 (ip), vehicle: Klucel (hydroxypropylcellulose) (HPC)); 306 % of control and 340 % of control (dose: 16.0 mg/kg/injection, schedule: Q01DX009 (ip), vehicle: saline + alcohol); 271 % of control and 284 % of control and 348 % of control (dose: 16.0 mg/kg/injection, schedule: Q01DX009 (sc), vehicle: saline + alcohol); 177 % of control and 268 % of control (dose: 23.0 mg/kg/injection, schedule: Q01DX Z (ip), vehicle: carboxymethylcellulose (CMC)). Also, the T/C runs as follows: (dose: 23.0 mg/kg/injection, schedule: Q01DX Z (iv), vehicle: carboxymethylcellulose (CMC)) 155 % of control and 368 % of control; (dose: 23.0 mg/kg/injection, schedule: Q01DX Z (oral), vehicle: carboxymethylcellulose (CMC)) 212 % of control and 222 % of control; under setting [4], 156 % of control and 211 % of control and 268 % of control; (dose: 23.0 mg/kg/injection, schedule: Q07DX Z (sc), vehicle: carboxymethylcellulose (CMC)) 118 % of control; (dose: 24.0 mg/kg/injection, schedule: Q01DX009 (ip), vehicle: saline + alcohol) 184 % of control; (dose: 24.0 mg/kg/injection, schedule: Q01DX009 (sc), vehicle: saline + alcohol) 219 % of control. The T/C was 275 % of control (dose: 30.0 mg/kg/injection, schedule: Q01DX009 (ip), vehicle: Klucel (hydroxypropylcellulose) (HPC)); 173 % of control (dose: 32.0 mg/kg/injection, schedule: Q01DX009 (sc), vehicle: saline + alcohol); 161 % of control (dose: 39.0 mg/kg/injection, schedule: Q01DX Z (oral), vehicle: carboxymethylcellulose (CMC)); 312 % of control (dose: 39.0 mg/kg/injection, schedule: Q01DX Z (sc), vehicle: carboxymethylcellulose (CMC)); 95 % of control (dose: 64.0 mg/kg/injection, schedule: Q01DX009 (ip), vehicle: saline + alcohol); 107 % of control and 120 % of control (dose: 64.0 mg/kg/injection, schedule: Q01DX009 (sc), vehicle: saline + alcohol). The T/C runs as follows: (dose: 65.0 mg/kg/injection, schedule: Q01DX001 (sc), vehicle: carboxymethylcellulose (CMC)) 200 % of control; (dose: 65.0 mg/kg/injection, schedule: Q01DX Z (sc), vehicle: carboxymethylcellulose (CMC)) 237 % of control; (dose: 65.0 mg/kg/injection, schedule: Q07DX Z (sc), vehicle: carboxymethylcellulose (CMC)) 475 % of control; (dose: 108.0 mg/kg/injection, schedule: Q01DX001 (sc), vehicle: carboxymethylcellulose (CMC)) 193 % of control; (dose: 108.0 mg/kg/injection, schedule: Q01DX Z (oral), vehicle: carboxymethylcellulose (CMC)) 122 % of control; (dose: 108.0 mg/kg/injection, schedule: Q07DX Z (sc), vehicle: carboxymethylcellulose (CMC)) 250 % of control. Moreover, the T/C was 362 % of control (dose: 180.0 mg/kg/injection, schedule: Q01DX001 (sc), vehicle: carboxymethylcellulose (CMC)); 116 % of control (dose: 180.0 mg/kg/injection, schedule: Q01DX Z (oral), vehicle: carboxymethylcellulose (CMC)); 193 % of control (dose: 180.0 mg/kg/injection, schedule: Q07DX Z (sc), vehicle: carboxymethylcellulose (CMC)); 243 % of control (dose: 300.0 mg/kg/injection, schedule: Q01DX001 (sc), vehicle: carboxymethylcellulose (CMC)).

For the compound `Nc1nncs1`, the T/C is 100 % of control and 103 % of control (dose: 39.0 mg/kg/injection, schedule: Q02DX005 (sc), vehicle: water); 100 % of control and 102 % of control (dose: 65.0 mg/kg/injection, schedule: Q02DX005 (sc), vehicle: water); 100 % of control and 106 % of control (dose: 108.0 mg/kg/injection, schedule: Q02DX005 (sc), vehicle: water); 122 % of control (dose: 180.0 mg/kg/injection, schedule: Q02DX005 (sc), vehicle: water); 166 % of control and 180 % of control (dose: 300.0 mg/kg/injection, schedule: Q02DX005 (sc), vehicle: water); 100 % of control and 104 % of control (dose: 300.0 mg/kg/injection, schedule: Q04DX003 (sc), vehicle: saline). Further, the T/C was 172 % of control and 180 % of control (dose: 500.0 mg/kg/injection, schedule: Q02DX005 (sc), vehicle: water); 105 % of control and 112 % of control (dose: 500.0 mg/kg/injection, schedule: Q04DX003 (sc), vehicle: saline); 116 % of control and 124 % of control (dose: 833.0 mg/kg/injection, schedule: Q04DX003 (sc), vehicle: saline); 154 % of control (dose: 1388.0 mg/kg/injection, schedule: Q04DX003 (sc), vehicle: saline).

In the case of `O=NN(CCF)C(=O)NC1CCCCC1`, the T/C is 100 % of control (dose: 1.85 mg/kg/injection, schedule: Q01DX Z (sc), vehicle: carboxymethylcellulose (CMC)); 111 % of control (dose: 3.75 mg/kg/injection, schedule: Q01DX Z (sc), vehicle: carboxymethylcellulose (CMC)); 376 % of control (dose: 7.5 mg/kg/injection, schedule: Q01DX Z (sc), vehicle: carboxymethylcellulose (CMC)); 394 % of control (dose: 15.0 mg/kg/injection, schedule: Q01DX Z (sc), vehicle: carboxymethylcellulose (CMC)); 211 % of control (dose: 30.0 mg/kg/injection, schedule: Q01DX Z (sc), vehicle: carboxymethylcellulose (CMC)).

On to `CCOC1=C(N2CC2)C(=O)C(OCC)=C(N2CC2)C1=O`, for which the T/C is, setting by setting: under setting [1], 113 % of control; under setting [2], 118 % of control; under setting [3], 113 % of control; (dose: 14.0 mg/kg/injection, schedule: Q01DX Z (sc), vehicle: carboxymethylcellulose (CMC)) 109 % of control; under setting [4], 100 % of control.

Values taken from PubChem BioAssay AID258 (DTP/NCI, 2004).
